{
  "source": "patent US8679859B2",
  "about": "“Method for functionalizing materials and devices comprising such materials” (State of Oregon by and through the State Board of Higher …, priority 2007, dated 2014)",
  "key": {"peanut agglutinin (PNA)": {"molecular_target": "T1, peanut agglutinin (PNA) (Arachis hypogaea, UniProt P02872)", "T1 construct": "purchased Molecular Probes", "T1 sequence (P02872 24-273)": "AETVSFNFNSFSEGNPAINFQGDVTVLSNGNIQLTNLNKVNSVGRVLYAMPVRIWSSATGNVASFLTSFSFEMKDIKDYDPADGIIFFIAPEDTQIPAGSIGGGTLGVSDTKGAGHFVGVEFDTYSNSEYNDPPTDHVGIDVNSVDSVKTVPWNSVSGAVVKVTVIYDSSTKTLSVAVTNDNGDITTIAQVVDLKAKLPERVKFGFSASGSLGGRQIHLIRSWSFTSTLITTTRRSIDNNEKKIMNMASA", "assay": "Carbohydrate microarray on PEO-coated glass slides, fluorescence-tagged lectin binding", "conditions": "lectin 10 μg/ml, FIG. 30"}, "soybean agglutinin (SBA)": {"molecular_target": "soybean agglutinin (SBA) (Glycine max, UniProt P05046)", "sequence (P05046 33-285)": "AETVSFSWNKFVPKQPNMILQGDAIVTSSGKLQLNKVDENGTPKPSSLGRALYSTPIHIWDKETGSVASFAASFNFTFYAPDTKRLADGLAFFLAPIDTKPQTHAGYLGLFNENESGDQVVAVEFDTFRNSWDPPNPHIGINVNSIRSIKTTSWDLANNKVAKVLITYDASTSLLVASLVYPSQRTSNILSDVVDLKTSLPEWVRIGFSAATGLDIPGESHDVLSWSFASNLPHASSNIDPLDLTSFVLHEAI", "assay": "Carbohydrate microarray on PEO-coated glass slides, fluorescence-tagged lectin binding", "conditions": "lectin 10 μg/ml, FIG. 32", "procedure": "The slides were subsequently irradiated under UV (7 min), and washed with PBS (pH 7.4) containing 0.1% Tween® 20 for 30 minutes and then rinsed with water to remove excess carbohydrates. After drying under a stream of nitrogen, the slides were first incubated with a solution of PBS (pH 7.4) containing 0.1% Tween® 20 and 3% BSA (w/v) for 30 minutes, and then washed with PBS (pH 7.4) containing 0.1% Tween® 20 for 20 minutes. After drying under a stream of nitrogen, the slides were incubated with Alexa Fluo 647-labeled lectins (10 μg/ml) in PBS (pH 7.4) containing 0.1% Tween® 20 overnight at room temperature. The unbound lectins were removed by gentle shaking in the same buffer for 20 minutes, after which time the slides were scanned (Ex: 633 nm; Em: 650-750 nm).\nFollowing array preparation, binding analysis of the surfaces was performed. Fluorescence-tagged lectins were used, and fluorescence imaging was employed in developing the array binding patterns. Four different lectins were assayed: Griffonia simplicifolia II (GSII), peanut agglutinin (PNA), jack bean lectin (Con A), and soybean agglutinin (SBA)."}, "Con A": {"molecular_target": "Con A (Canavalia ensiformis, UniProt P02866)", "conditions": "free carbohydrate with Con A, isothermal microcalorimetry, Mandal et al.; cited from earlier work"}, "jack bean lectin (Con A)": {"molecular_target": "T2, jack bean lectin (Con A) (Canavalia ensiformis, UniProt P02866)", "T2 construct": "purchased Molecular Probes", "assay": "Carbohydrate microarray on PEO-coated glass slides, fluorescence-tagged lectin binding", "conditions": "lectin 10 μg/ml, FIG. 31"}},
  "data": [
    {"molecule": "[N-]=[N+]=Nc1c(F)c(F)c(C(=O)NCCOCCOCCO[C@@H]2OC(CO)[C@@H](O[C@@H]3OC(CO)[C@H](O)C(O)C3O)C(O)C2O)c(F)c1F", "note": "(stereo partly drawn) [lactose]", "values": [
      {"measurement": "PNA binding pattern on microarray (fluorescence)", "setting": "peanut agglutinin (PNA)", "value": "primary ligand"},
      {"measurement": "SBA binding pattern on microarray (fluorescence)", "setting": "soybean agglutinin (SBA)", "value": "showed binding"}
    ]},
    {"molecule": "OC[C@H]1O[C@H](O[C@H]2[C@H](O)[C@@H](CO)OC(O)[C@H]2O)[C@@H](O)[C@@H](O)[C@@H]1O", "note": "(stereo partly drawn) [α-1,3-mannobiose]", "values": [
      {"measurement": "Ka", "setting": "Con A", "value": 142000, "unit": "M⁻¹"}
    ]},
    {"molecule": "[N-]=[N+]=Nc1c(F)c(F)c(C(=O)NCCOCCOCCO[C@H]2OC(CO)[C@@H](O)C(O)C2O)c(F)c1F", "note": "(stereo partly drawn) [α-D-mannoside structures]", "values": [
      {"measurement": "Con A binding pattern on microarray (fluorescence)", "setting": "jack bean lectin (Con A)", "value": "specificity of Con A for binding"}
    ]},
    {"molecule": "[N-]=[N+]=Nc1c(F)c(F)c(C(=O)NCCOCCOCCO[C@@H]2OC(CO)[C@@H](O)C(O)C2O)c(F)c1F", "note": "(stereo partly drawn) [β-D-glucoside]", "values": [
      {"measurement": "Con A binding pattern on microarray (fluorescence)", "setting": "jack bean lectin (Con A)", "value": "low binding"}
    ]},
    {"molecule": "cellobiose", "values": [
      {"measurement": "PNA binding pattern on microarray (fluorescence)", "setting": "peanut agglutinin (PNA)", "value": "lesser amounts of binding"}
    ]}
  ]
}
